Measured values published in patent US6737383B1, “Herbicidal oxadiazolidines” (priority 1999, dated 2004).

How the values were obtained:
winter wheat [1] = test: Test E winter wheat; type: in vivo, Triticum aestivum; conditions: Preemergence; for Wheat (winter) plant response rating (0 to 100 scale): Rate 250 g/ha
rape = test: Test B pre/postemergence rape; type: in vivo, Brassica napus
In short: (§1)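 Herbicidal effect was estimated by eye on a ten-point control scale after plants spent twelve to sixteen days in a greenhouse following soil or foliar treatment. Foliar sprays targeted plants at one to four leaves; all doses were formulated in a non-phytotoxic solvent with surfactant.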

wild oat = test: Test E wild oat; type: in vivo, Avena fatua; conditions: Preemergence; for Wild oat plant response rating (0 to 100 scale): Rate 250 g/ha
winter wheat [2] = test: Test E winter wheat; type: in vivo, Triticum aestivum; conditions: Postemergence; for Wheat (winter) plant response rating: Rate 250 g/ha
In short: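 Each compound, carried in a non-phytotoxic solvent blend including surfactant, was applied (postemergence: over the top of young plants at 1- to 4-leaf stage). Plants stayed in the greenhouse about 21 to 28 days before visual comparison with untreated controls.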

blackgrass = test: Test E blackgrass; type: in vivo, Alopecurus myosuroides; conditions: Preemergence; for Blackgrass plant response rating (0 to 100 scale): Rate 250 g/ha
winter barley = test: Test E winter barley; type: in vivo, Hordeum vulgare; conditions: Preemergence; for Barley (winter) plant response rating (0 to 100 scale): Rate 250 g/ha
green foxtail = test: Test E green foxtail; type: in vivo, Setaria viridis; conditions: Preemergence; for Green foxtail plant response rating (0 to 100 scale): Rate 250 g/ha
soybean = test: Test B pre/postemergence soybean; type: in vivo, Glycine max
In short: as §1

smallflower flatsedge = test: Test B flood test smallflower flatsedge; type: in vivo, Cyperus difformis
In short: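 Read-out is a visual response score from 0 (no effect) to 10 (complete control), assigned by comparison with untreated controls. Treatment was applied at the 2-leaf stage, and plants stayed in the greenhouse for twelve to sixteen days before scoring.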

Italian ryegrass = test: Test E Italian ryegrass; type: in vivo, Lolium multiflorum; conditions: Preemergence; for I. Ryegrass plant response rating (0 to 100 scale): Rate 250 g/ha
corn = test: Test B pre/postemergence corn; type: in vivo, Zea mays
In short: as §1

[3] = Rate 500 g/ha, 0 to 100 scale where 0 is no effect and 100 is complete control
[4] = Preemergence, Rate 62 g/ha, scale of 0 to 10 where 0 is no effect and 10 is complete control
[5] = Preemergence, Rate 250 g/ha, scale of 0 to 10 where 0 is no effect and 10 is complete control
[6] = Preemergence, Rate 500 g/ha, scale of 0 to 10 where 0 is no effect and 10 is complete control
[7] = Rate 125 g/ha, Postemergence, scale of 0 to 10 where 0 is no effect and 10 is complete control
[8] = Rate 125 g/ha, Preemergence, scale of 0 to 10 where 0 is no effect and 10 is complete control
[9] = Rate 250 g/ha, Postemergence, scale of 0 to 10 where 0 is no effect and 10 is complete control
[10] = Rate 500 g/ha, Postemergence, scale 0 to 10, 0 no effect, 10 complete control
[11] = 0 to 100 scale where 0 is no effect and 100 is complete control
[12] = Rate 500 g/ha, 0 to 100 scale, 0 is no effect, 100 is complete control
[13] = Rate 62 g/ha, headed Pre-emergence (flood test species), scale 0 to 10 (0 no effect, 10 complete control)
[14] = Rate 125 g/ha, Pre-emergence, flood test species, scale 0 to 10 where 0 is no effect and 10 is complete control
[15] = Rate 250 g/ha, Pre-emergence, flood-test species, scale 0 to 10, 0 is no effect, 10 is complete control
[16] = Rate 500 g/ha, Pre-emergence, flood test species, scale 0 to 10 (0 no effect, 10 complete control)
[17] = Rate 62 g/ha, Postemergence, scale of 0 to 10 where 0 is no effect and 10 is complete control
[18] = Rate 125 g/ha, 0 to 100 scale (0 no effect, 100 complete control)
[19] = Rate 1000 g/ha, 0 to 100 scale, 0 no effect, 100 complete control

CC(C)N(C(=O)n1oc(=O)n(Cc2ccccn2)c1=O)c1ccc(F)cc1 [Compound 267]
50: Blackgrass plant response rating (0 to 100 scale) (blackgrass) | I. Ryegrass plant response rating (0 to 100 scale) (Italian ryegrass) | Plant response rating, I. Ryegrass (Italian ryegrass; [3])
100: Green foxtail plant response rating (0 to 100 scale) (green foxtail) | Plant response rating, Green foxtail (green foxtail; [3])
0: Rape plant response rating (rape; [4]) | Rape plant response rating (rape; [5]) | Plant response rating, Rape (rape; [6]) | Rape plant response rating (rape; [7]) | Rape plant response rating (rape; [8]) | Plant response rating, Rape (rape; [9]) | Soybean plant response rating (soybean; [4]) | Soybean plant response rating (soybean; [5]) | Plant response rating, Soybean (soybean; [6]) | Soybean plant response rating (soybean; [8]) | S. Flatsedge plant response rating (smallflower flatsedge; [13]) | S. Flatsedge plant response rating (smallflower flatsedge; [14]) | S. Flatsedge plant response rating (smallflower flatsedge; [15]) | S. Flatsedge plant response rating (smallflower flatsedge; [16]) | Corn plant response rating (corn; [4]) | Corn plant response rating (corn; [17]) | Corn plant response rating (corn; [7]) | Corn plant response rating (corn; [8]) | Plant response rating, Corn (corn; [9]) | Corn plant response rating (corn; [10])
2: Rape plant response rating (rape; [10]) | Soybean plant response rating (soybean; [7]) | Corn plant response rating (corn; [5])
3: Plant response rating, Soybean (soybean; [9]) | Plant response rating, Corn (corn; [6])
70: Plant response rating, Wheat (winter) (winter wheat [1]; [3]) | Plant response rating, Wild oat (wild oat; [3]) | Wheat (winter) plant response rating (winter wheat [2]; [11]) | Plant response rating, Wheat (winter) (winter wheat [2]; [12]) | Plant response rating, Barley (winter) (winter barley; [3])
60: Plant response rating, Blackgrass (blackgrass; [3])
6: Soybean plant response rating (soybean; [10])
55: Wheat (winter) plant response rating (0 to 100 scale) (winter wheat [1]) | Wild oat plant response rating (0 to 100 scale) (wild oat)
30: Barley (winter) plant response rating (0 to 100 scale) (winter barley)

CC(C)N(C(=O)n1oc(=O)n(C2CCCC2)c1=O)c1ccc(F)cc1 [Compound 271]
50: Plant response rating, Wheat (winter) (winter wheat [1]; [3]) | Plant response rating, Wild oat (wild oat; [18]) | Plant response rating, Barley (winter) (winter barley; [3])
0: Plant response rating, Wheat (winter) (winter wheat [2]; Rate 1000 g/ha, 0 to 100 scale where 0 is no effect and 100 is complete control) | Plant response rating, Wheat (winter) (winter wheat [2]; [12]) | Soybean plant response rating (soybean; [4]) | Soybean plant response rating (soybean; [5]) | Soybean plant response rating (soybean; [8]) | S. Flatsedge plant response rating (smallflower flatsedge; [13]) | S. Flatsedge plant response rating (smallflower flatsedge; [14]) | S. Flatsedge plant response rating (smallflower flatsedge; [15]) | S. Flatsedge plant response rating (smallflower flatsedge; [16]) | Corn plant response rating (corn; [4]) | Corn plant response rating (corn; [5]) | Corn plant response rating (corn; [17]) | Corn plant response rating (corn; [7]) | Corn plant response rating (corn; [8]) | Plant response rating, Corn (corn; [9]) | Corn plant response rating (corn; [10])
5: Soybean plant response rating (soybean; [7]) | Plant response rating, Soybean (soybean; [9])
1: Plant response rating, Soybean (soybean; [6])
100: Blackgrass plant response rating (0 to 100 scale) (blackgrass) | Plant response rating, Blackgrass (blackgrass; [19]) | Green foxtail plant response rating (0 to 100 scale) (green foxtail) | Plant response rating, Green foxtail (green foxtail; [3]) | Plant response rating, Green foxtail (green foxtail; [19]) | I. Ryegrass plant response rating (0 to 100 scale) (Italian ryegrass) | Plant response rating, I. Ryegrass (Italian ryegrass; [19])
80: Plant response rating, Blackgrass (blackgrass; [3])
60: Wheat (winter) plant response rating (0 to 100 scale) (winter wheat [1]) | Wild oat plant response rating (0 to 100 scale) (wild oat) | Plant response rating, Wild oat (wild oat; [19]) | Plant response rating, Barley (winter) (winter barley; [19]) | Plant response rating, I. Ryegrass (Italian ryegrass; [18])
30: Plant response rating, Wheat (winter) (winter wheat [1]; [18]) | Plant response rating, Blackgrass (blackgrass; [18])
10: Rape plant response rating (rape; [5]) | Plant response rating, Rape (rape; [6]) | Plant response rating, Wheat (winter) (winter wheat [2]; Rate 125 g/ha, 0 to 100 scale, 0 is no effect, 100 is complete control) | Wheat (winter) plant response rating (winter wheat [2]; [11])
4: Rape plant response rating (rape; [8]) | Plant response rating, Rape (rape; [9])
35: Plant response rating, Barley (winter) (winter barley; [18])
75: Plant response rating, Wheat (winter) (winter wheat [1]; [19])
2: Rape plant response rating (rape; [4])
70: Plant response rating, Green foxtail (green foxtail; [18])
45: Barley (winter) plant response rating (0 to 100 scale) (winter barley)
85: Plant response rating, I. Ryegrass (Italian ryegrass; [3])
6: Rape plant response rating (rape; [10]) | Soybean plant response rating (soybean; [10])
3: Rape plant response rating (rape; [7]) | Plant response rating, Corn (corn; [6])
65: Plant response rating, Wild oat (wild oat; [3])
